Assay results reported in patent publication US9006250B2, “4-amino-6-(heterocyclic)picolinates and 6-amino-2-(heterocyclic)pyrimidine-4-carboxylates and their use as herbicides” (Dow AgroSciences, LLC, priority 2013, dated 2015).

What was measured:
Format in all cases: in vivo
[1] = test system: ECHCG: barnyardgrass (Echinochloa crus-galli); experiment: Post-Emergent Test I herbicidal activity; settings: 4 Kg ai/ha
Description: (§1) Post-Emergent Test I: Seeds test species were obtained from commercial suppliers and planted into a 5″-round pot containing soil-less media mix (Metro-Mix 360®, Sun Gro Horticulture). Postemergence treatments were planted 8-12 days (d) prior to application and cultured in a greenhouse equipped with supplemental light sources to provide a 16 hour (h) photoperiod at 24-29° C. All pots were surface irrigated. Approximately 10 milligrams (mg) of each compound were dissolved in 1.3 mL acetone-DMSO (97:3, v/v) and diluted with 4.1 mL water-isopropanol-crop oil concentrate (78:20:2, v/v/v) containing 0.02% Triton X-155. Treatments were serial diluted with the above formulation solvent to provide 1.85, 0.926, 0.462 and 0.231 mg/mL of test compound delivered in 2.7 mL/pot (roughly equivalent to 4.0, 2.0, 1.0, and 0.5 kg/ha, respectively). Formulated compounds were applied using a DeVilbiss® compressed air sprayer at 2-4 pounds per square inch (psi). Following treatment, pots were returned to the greenhouse for the duration of the experiment. All pots were sub-irrigated as need to provide optimum growing conditions. All pots were fertilized one time per week by subirrigating with Peters Peat-Lite Special® fertilizer (20-10-20). Phytotoxicity ratings were obtained 10 days after treatment postemergence applications. All evaluations were made visually on a scale of 0 to 100 where 0 represents no activity and 100 represents complete plant death. Visual assessments of plant injury were made based on growth reduction, discoloration, leaf deformity and necrosis.

[2] = test system: SETFA: giant foxtail (Setaria faberi); experiment: Post-Emergent Test I herbicidal activity; settings: 4 Kg ai/ha
Description: as §1

[3] = test system: HELAN: sunflower (Helianthus annuus); experiment: Post-Emergent Test I herbicidal activity; settings: 4 Kg ai/ha
Description: as §1

[4] = test system: IPOHE: ivyleaf morningglory (Ipomoea hederecea); experiment: Post-Emergent Test I herbicidal activity; settings: 4 Kg ai/ha
Description: as §1

[5] = test system: AVEFA: wild oats (Avena fatua); experiment: Post-Emergent Test I herbicidal activity; settings: 4 Kg ai/ha
Description: as §1

[6] = test system: CYPIR: rice flatsedge, Cyperus iria; experiment: Postemergence herbicidal activity in direct seeded rice
Excerpt: (§2) Seeds or nutlets of the desired test plant species were planted in a soil matrix prepared by mixing a loam soil (43 percent silt, 19 percent clay, and 38 percent sand, with a pH of about 8.1 and an organic matter content of about 1.5 percent) and river sand in an 80 to 20 ratio. The soil matrix was contained in plastic pots with a surface area of 139.7 cm^2. When required to ensure good germination and healthy plants, a fungicide treatment and/or other chemical or physical treatment was applied. The plants were grown for 10-17 d in a greenhouse with an approximate 14-h photoperiod which was maintained at about 29° C. during the day and 26° C. during the night. Nutrients and water were added on a regular basis and supplemental lighting was provided with overhead metal halide 1000-Watt lamps as necessary. The plants were employed for testing when they reached the second or third true leaf stage. A weighed amount, determined by the highest rate to be tested, of each test compound was placed in 25 mL glass vials and dissolved in a volume of 97:3 v/v acetone-DMSO to obtain 12× stock solutions. […] The concentrated stock solutions were added to the spray solutions so that the final acetone and DMSO concentrations were 16.2% and 0.5%, respectively. Spray solutions were diluted to the appropriate final concentrations with the addition of 10 mL of an aqueous mixture of 1.5% (v/v) Agri-dex crop oil concentrate. The final spray solutions contained 1.25% (v/v) Agri-dex crop oil concentrate. Compound requirements are based upon a 12 mL application volume at a rate of 187 L/ha. Formulated compounds were applied to the plant material with an overhead Mandel track sprayer equipped with […] nozzles calibrated to deliver 187 L/ha over an application area of 0.503 square meters (m^2) at a spray height of 18 inches ([…]) above average plant canopy height. Control plants were sprayed in the same manner with the solvent blank. The treated plants and control plants were placed in a greenhouse as described above and watered by sub-irrigation to prevent wash-off of the test compounds. After 20-22 days, the condition of the test plants, compared with that of the untreated plants, was determined visually and scored on a scale of 0 to 100 percent where 0 corresponds to no injury and 100 corresponds to complete kill. By applying the well-accepted probit analysis as described by J. Berkson in […], 48, 565 (1953) and by D. Finney in “Probit Analysis” Cambridge University Press (1952), the above data can be used to calculate GR20, GR50, GR80 and GR90 values, which are defined as growth reduction factors that correspond to the effective dose of herbicide required to kill or control 20 percent, 50 percent, 80 percent or 90 percent, respectively, of a target plant.

[7] = test system: LEFCH: Chinese sprangletop, Leptochloa chinensis; experiment: as above
Excerpt: as §2

ORYSJ: Oryza sativa = experiment: as above
Excerpt: as §2

[8] = test system: CYPDI: small-flower flatsedge, Cyperus difformis; experiment: as above
Excerpt: as §2

[9] = test system: SCPJU: Japanese bulrush, Scirpus juncoides; experiment: as above
Excerpt: as §2

[10] = test system: BRAPP: broadleaf signalgrass, Brachiaria platyphylla; experiment: as above
Excerpt: as §2

[11] = test system: SEBEX: hemp sesbania, Sesbania exaltata; experiment: as above
Excerpt: as §2

[12] = dose for 50 percent control, probit analysis
[13] = dose for 80 percent control, probit analysis
[14] = dose for 90 percent control, probit analysis

COC(=O)c1nc(-c2cc3nonc3cc2F)nc(N)c1OC [Compound 10, Methyl 6-amino-2-(6-fluorobenzo[c][1,2,5]oxadiazol-5-yl)-5-methoxypyrimidine-4-carboxylate]
Visual Growth Reduction (%) 10 Days After Application ECHCG [1]: C (75-84) | Visual Growth Reduction (%) 10 Days After Application SETFA [2]: C (75-84) | Visual Growth Reduction (%) 10 Days After Application HELAN [3]: C (75-84) | Visual Growth Reduction (%) 10 Days After Application IPOHE [4]: C (75-84) | Visual Growth Reduction (%) 10 Days After Application AVEFA [5]: C (75-84)

COC(=O)c1nc(-c2ccc3nsnc3c2)c(F)c(N)c1Cl [Compound 11]
Visual Growth Reduction (%) 21 Days After Application CYPIR ([6]; 17.5 g ai/ha): G (0-29) | Visual Growth Reduction (%) 21 Days After Application CYPIR ([6]; 35 g ai/ha): E (45-59) | Visual Growth Reduction (%) 21 Days After Application CYPIR ([6]; 70 g ai/ha): F (30-44) | GR50 CYPIR [6, 12]: 78 g ai/ha | GR80 CYPIR [6, 13]: 212 g ai/ha | GR90 CYPIR [6, 14]: 357 g ai/ha | Visual Growth Reduction (%) 21 Days After Application LEFCH ([7]; 17.5 g ai/ha): G (0-29) | Visual Growth Reduction (%) 21 Days After Application LEFCH ([7]; 35 g ai/ha): G (0-29) | Visual Growth Reduction (%) 21 Days After Application LEFCH ([7]; 70 g ai/ha): G (0-29) | GR50 LEFCH [7, 12]: 114 g ai/ha | GR80 LEFCH [7, 13]: 186 g ai/ha | GR90 LEFCH [7, 14]: 239 g ai/ha | Visual Growth Reduction (%) 21 Days After Application ORYSJ (ORYSJ: Oryza sativa; 17.5 g ai/ha): G (0-29) | Visual Growth Reduction (%) 21 Days After Application ORYSJ (ORYSJ: Oryza sativa; 35 g ai/ha): G (0-29) | Visual Growth Reduction (%) 21 Days After Application ORYSJ (ORYSJ: Oryza sativa; 70 g ai/ha): G (0-29) | GR20 ORYSJ (ORYSJ: Oryza sativa; dose for 20 percent growth reduction, probit analysis): >70 g ai/ha | Visual Growth Reduction (%) 21 Days After Application CYPDI ([8]; 17.5 g ai/ha): A (95-100) | Visual Growth Reduction (%) 21 Days After Application CYPDI ([8]; 35 g ai/ha): A (95-100) | Visual Growth Reduction (%) 21 Days After Application CYPDI ([8]; 70 g ai/ha): A (95-100) | GR50 CYPDI [8, 12]: 6 g ai/ha | GR80 CYPDI [8, 13]: 11 g ai/ha | GR90 CYPDI [8, 14]: 16 g ai/ha | Visual Growth Reduction (%) 21 Days After Application SCPJU ([9]; 17.5 g ai/ha): A (95-100) | Visual Growth Reduction (%) 21 Days After Application SCPJU ([9]; 35 g ai/ha): A (95-100) | Visual Growth Reduction (%) 21 Days After Application SCPJU ([9]; 70 g ai/ha): A (95-100) | GR50 SCPJU [9, 12]: 4 g ai/ha | GR80 SCPJU [9, 13]: 9 g ai/ha | GR90 SCPJU [9, 14]: 14 g ai/ha | Visual Growth Reduction (%) 21 Days After Application BRAPP ([10]; 17.5 g ai/ha): G (0-29) | Visual Growth Reduction (%) 21 Days After Application BRAPP ([10]; 35 g ai/ha): G (0-29) | Visual Growth Reduction (%) 21 Days After Application BRAPP ([10]; 70 g ai/ha): E (45-59) | GR50 BRAPP [10, 12]: >70 g ai/ha | GR80 BRAPP [10, 13]: >70 g ai/ha | GR90 BRAPP [10, 14]: >70 g ai/ha | Visual Growth Reduction (%) 21 Days After Application SEBEX ([11]; 17.5 g ai/ha): C (75-84) | Visual Growth Reduction (%) 21 Days After Application SEBEX ([11]; 35 g ai/ha): A (95-100) | Visual Growth Reduction (%) 21 Days After Application SEBEX ([11]; 70 g ai/ha): A (95-100) | GR50 SEBEX [11, 12]: 4 g ai/ha | GR80 SEBEX [11, 13]: 11 g ai/ha | GR90 SEBEX [11, 14]: 19 g ai/ha
